Where two headings read alike, the source gives them in different places.
Assays:
Assay type in all cases: in vivo, Cynomolgus monkeys
[1] = tested on: hypersensitivity in the esophagus evoked by continuous electrical stimulation; test: Hypersensitivity model evoked by electrical stimulation (nociceptive threshold)
Experimental: Cynomolgus monkeys (aged 4 to 6 years, female, Japan Laboratory Animals, Inc., no history of administration) were acclimated to a monkey chair for 2 days or more, and were fasted for 12 hours or more. After that, on the day of experiment, the monkeys were immobilized in the monkey chair after the measurement of body weight, and were acclimated for another one hour or more. An electrostimulation catheter was inserted from a nostril, and electrical stimulation was applied at the position approximately 10 cm above the cardiac part of stomach (the upper esophagus). […] This was carried out three times every 2 to 3 minutes at each evaluation time point, and the average value was used as a nociceptive behavior threshold at each time point. Hypersensitivity was induced by continuous electrical stimulation to the position approximately 3 cm above the cardiac region (the lower esophagus). That is, an electrostimulation catheter was inserted from a nostril, and electrical stimulation was applied at the position of the lower esophagus for 30 minutes. […] The endpoint was assessed by comparing the nociceptive thresholds before and after continuous electrical stimulation, the nociceptive threshold of the vehicle-administered group at each time point and the nociceptive threshold of the Compound A-administered group at each time point. […]

[2] = Evaluation of penetration into the center (plasma, CSF and tissue concentration by LC/MS/MS); details: female, cynomolgus monkey, subcutaneous, 0.1 mg/kg s.c., 180 minutes after administration; for concentration at 180 min: n=3
Experimental: Cynomolgus monkeys (aged 4 to 6 years, female, Japan Laboratory Animals, Inc., no history of administration) were immobilized in a monkey chair, and Compound A was subcutaneously administered thereto (0.1 mg/kg), followed by collecting blood at 180 minutes after administration. The blood samples were centrifuged at 10000 g at 4° C. for 3 minutes to collect plasma. Next, the cerebrospinal fluid was collected under anesthesia by intravenous administration of pentobarbital sodium, and the lower esophagus, the upper esophagus, the dorsal root ganglion, the spinal cord and the brain stem were then collected. Furthermore, the dorsal root ganglion and the spinal cord were collected from the first to sixth thoracic spinal cord, which controls esophageal nerves. To the collected tissue, 4 times the amount of saline per wet weight of each tissue was added, followed by homogenization using Physcotron to obtain each tissue homogenate. The number of animals was 3.
The concentration of Compound A in each tissue was measured by a LC/MS/MS method.
To the samples for 50 μL of a calibration curve and test samples of Compound A, 1 mL of ultrapure water and an internal standard substance were added under ice cold conditions, followed by stirring. To a solid phase extraction cartridge (OAS1S MAX 30 mg/1 cc, Waters Corporation) which had been conditioned in advance, each sample was loaded and washing was carried out, followed by centrifugation, and a cleaning liquid was discharged from the cartridge for drying. Further, elution was carried out with 1 mL of an acetonitrile/acetic acid mixed liquid (49:1), and the eluate was concentrated and dried under a current of nitrogen (40° C. or less). The residue was redissolved in 200 μL of a methanol/0.1 vol % acetic acid solution (70: 30) to obtain a sample for the measurement of LC/MS/MS.
The analysis by LC/MS/MS was carried out under the following conditions.
Measuring device: Nanospace 3033 (Shiseido Co., Ltd.) Analysis column: SunFire C18 3.5 μm (2.1 mm i.d.×100 mm, 3.5 μm, Waters Corporation) Mobile phase: Acetonitrile/0.1 vol % acetic acid solution (70: 30) Cleaning liquid for cleaning port (one component): 2-propanol Cleaning liquid for cleaning port (two components): Mobile phase [acetonitrile/0.1 vol % acetic acid solution (70: 30)] Flow rate: 0.2 mL/min Column temperature: 35° C. Sample temperature: 4° C. Analysis time: 13 minutes
Measuring device: API4000 (AB SCIEX) Ion source: ESI Scan type: MRM
Using the peak area ratio (standard substance/internal standard substance) obtained by the measurement of a sample for a calibration curve, the calibration curve (y=aX+b, Y: Peak area ratio, X: Concentration) was made from the single regression line by the least squares method, and the peak area ratios of test samples were applied to the calibration curve to calculate a measured value.

[3] = tested on: hypersensitivity in the esophagus evoked by hydrochloric acid perfusion; test: Hypersensitivity model evoked by acid (nociceptive threshold to esophageal electrical stimulation)
Experimental: Cynomolgus monkeys (aged 4 to 6 years, female, Japan Laboratory Animals, Inc., no history of administration) were acclimated to a monkey chair for 2 days or more, and were fasted for 12 hours or more. After that, on the day of experiment, the monkeys were immobilized in the monkey chair after the measurement of body weight, and were acclimated for another one hour or more. An electrostimulation catheter was inserted from a nostril, and electrical stimulation was applied at the position approximately 10 cm above the cardiac part of stomach (the upper esophagus). […] This was carried out three times every 2 to 3 minutes at each evaluation time point, and the average value was used as a nociceptive threshold at each time point. Saline or hydrochloric acid (1.5 N) was perfused from the position approximately 3 cm above the cardiac region (the lower esophagus) to the stomach at an injection rate of 160 mL/h for 30 minutes. The nociceptive thresholds were measured before and after perfusion of saline in the esophagus, before perfusion of hydrochloric acid in the esophagus and at 0, 30, 60, 90 and 120 minutes after perfusion of hydrochloric acid in the esophagus. The vehicle or Compound A (0.01 and 0.1 mg/kg, respectively) was subcutaneously administered 30 minutes before the start of the perfusion of hydrochloric acid. […] The endpoint was assessed by comparing the nociceptive thresholds before and after perfusion of hydrochloric acid, the nociceptive threshold of the vehicle-administered group at each time point and the nociceptive threshold of the Compound A-administered group at each time point. […]

[4] = tested on: transient lower esophageal sphincter relaxation; test: Action on transient lower esophageal sphincter relaxation (TLESR) (2); details: 0.01 and 0.1 mg/kg s.c. 30 min before high-fat diet and air injection; measured for 45 minutes; vs vehicle-administered group; FIG. 3
Experimental: Cynomolgus monkeys (aged 4 to 6 years, female, Japan Laboratory Animals, Inc., no history of administration) were acclimated to a monkey chair for 2 days or more, and were fasted for 12 hours or more. After that, on the day of experiment, the monkeys were immobilized in the monkey chair after the measurement of body weight, and was acclimated for another one hour or more. A high-fat diet/air injection catheter and a sensor catheter for measuring pressure were inserted from a nostril and the oral cavity. A high-fat diet was injected into the stomach so that the final volume would be 80 mL, and air was then injected up to a pressure in the stomach of 20 mmHg, and maintained. The pressure in the esophagus was measured by a sensor catheter in the lower esophageal sphincter region and the positions approximately 2, 3 and 6 cm above the lower esophageal sphincter. […] The frequency of TLESR was measured for 45 minutes from the injection of high-fat diet to the end of ventilation. Here, TLESR was measured considering that the relaxation response of the lower esophageal sphincter region was longer by […] and was not elicited by peristaltic motion occurring in the esophagus, and the rate of reduction of pressure was greater than […], and measured. […]

Kp at 180 min ([2]; brain stem / plasma, read-out: percentage to the concentration in plasma, brain stem tissue): 0.057 | concentration at 180 min ([2]; brain stem, tissue homogenate, read-out: average concentration in brain stem tissue): 0.22 ng/mL | Kp at 180 min ([2]; cerebrospinal fluid / plasma, read-out: percentage to the concentration in plasma, cerebrospinal fluid): 0.019 | concentration at 180 min ([2]; cerebrospinal fluid, read-out: average concentration in cerebrospinal fluid): 0.07 ng/mL | Kp at 180 min ([2]; dorsal root ganglion / plasma, read-out: percentage to the concentration in plasma, dorsal root ganglion): 0.163 | concentration at 180 min ([2]; dorsal root ganglion, tissue homogenate, read-out: average concentration in dorsal root ganglion): 0.62 ng/mL | Kp at 180 min ([2]; lower esophagus / plasma, read-out: percentage to the concentration in plasma, lower esophagus): 0.067 | concentration at 180 min ([2]; lower esophagus, tissue homogenate, read-out: average concentration in lower esophagus): 0.25 ng/mL | concentration at 180 min ([2]; plasma, read-out: average concentration in plasma): 3.79 ng/mL | Kp at 180 min ([2]; spinal cord / plasma, read-out: percentage to the concentration in plasma, spinal cord): 0.051 | concentration at 180 min ([2]; spinal cord, tissue homogenate, read-out: average concentration in spinal cord): 0.19 ng/mL | Kp at 180 min ([2]; upper esophagus / plasma, read-out: percentage to the concentration in plasma, upper esophagus): 0.073 | concentration at 180 min ([2]; upper esophagus, tissue homogenate, read-out: average concentration in upper esophagus): 0.28 ng/mL
SMILES: Cc1cc(C(=O)O)ccc1COc1cc2c(cc1N(CC(C)C)S(=O)(=O)c1nccs1)CCC2 [Compound A, 4-[({6-[isobutyl(1,3-thiazol-2-ylsulfonyl)amino]-2,3-dihydro-1H-inden-5-yl}oxy)methyl]-3-methyl benzoic acid]
decrease in nociceptive threshold after continuous electrical stimulation ([1]; 0.1 mg/kg s.c. 30 min before 30 min electrical stimulation of lower esophagus, FIG. 2): suppressed to a normal level | duration of suppressive action after continuous electrical stimulation ([1]; 0.1 mg/kg s.c., time after end of continuous electrical stimulation): ≥ 120 min | nociceptive threshold after hydrochloric acid perfusion ([3]; 0.1 mg/kg s.c. 30 min before HCl perfusion, FIG. 1): suppressed to a normal level | decrease in nociceptive threshold after hydrochloric acid perfusion ([3]; Compound A 0.01 and 0.1 mg/kg s.c. 30 min before HCl (1.5 N) perfusion, vs control group, FIG. 1): dose-dependently suppressed | duration of suppressive action after hydrochloric acid perfusion ([3]; Compound A-administered groups, s.c., time after end of HCl perfusion): ≥ 120 min | frequency of TLESR [4]: dose-dependently decreased
